One assay concerns renal cancer cell lines. Kind of assay: SRB test, eight renal cancer cell lines together. The class given is cell-based. On the procedure:
(§1) Test of Anti-cancer efficacy in the Cancer cell line. In order to examine anti-cancer efficacy of 2-alkyloxy-3-phenylethynyl-4a,5-dihydropyrido[2,3-b]pyrazine derivatives, Eight renal cancer cell lines were treated to perform an SRB test. In order to compare the anti-cancer efficacy, sutent® (Pfizer) was used for comparison.
(§2) 1) Method (SRB Test). The cancer cell lines were cultured in an RPMI 1640 medium containing 5% fetal bovine serum and 2 mM L-glutamine. The cancer cells were inoculated into a 96 well microtiter plate at a density of 5,000 or 40,000 cells/well. The cells were incubated at 37° C., 5% CO2, 95% air and 100% humidity for 24 hours prior to drug treatment.
(§3) After 24 hours, the cells were fixed with TCA at the time of drug addition (Tz). The drug was treated by 10-fold or log scale serial dilutions, and the efficacy was examined at a concentration of 5 point or more. After drug treatment, the cells were incubated for 48 hours. […] Bound stain was subsequently solubilized with trizma base, and the absorbance was read at 515 nm.
(§4) Growth inhibitory efficacy was measured by using the seven absorbance measurements. [time zero, (Tz), control growth, (C), and test growth in the presence of drug at the five concentration levels (Ti)], the percentage growth was calculated at each of the drug concentrations levels. […]
In general terms: Sulforhodamine B stains cellular protein and so reports cell mass.

A further assay concerns A498. Kind of assay: SRB test, renal cancer cell line A498. The class given is cell-based. The following applies: Homo sapiens, A498, 48 hours, read-out: IG50 (×E−7). The method, then:
as §1, §2, §3, §4

The next assay relates to MDA-MB-231 cells. Kind of assay: Anti-cancer efficacy on MDA231 breast cancer cell line by animal study (subcutaneous xenograft). Type of assay: in vivo. The conditions noted are these: 4 mg/kg, compared to the cisplatin-treated group, FIGS. 3 and 4.
In the next assay the test system is ACHN. Kind of assay: SRB test, renal cancer cell line ACHN. Type of assay: cell-based. The conditions noted are these: Homo sapiens, 48 hours, read-out: IG50 (×E−7). The method, then: as §1, §2, §3, §4
Another assay relates to CAKI-I. Kind of assay: SRB test, renal cancer cell line CAKI-I. Type of assay: cell-based. The following applies: 48 hours, read-out: IG50 (×E−7). On the procedure:
as §1, §2, §3, §4

Another assay deals with RXF393. Kind of assay: SRB test, renal cancer cell line RXF393. Type of assay: cell-based. The following applies: Homo sapiens, RXF 393, RXF393, 48 hours, read-out: IG50 (×E−7). On the procedure: as §1, §2, §3, §4
For the next assay, the system named is 786-O. In words: SRB test, renal cancer cell line 786-O. Type of assay: cell-based. The conditions noted are these: Homo sapiens, 786-0, 48 hours, read-out: IG50 (×E−7). The method, then:
as §1, §2, §3, §4

Another assay deals with TK10. Kind of assay: SRB test, renal cancer cell line TK10. The conditions noted are these: Homo sapiens, TK-10, TK10, 48 hours, read-out: IG50 (×E−7). Type of assay: cell-based. On the procedure: as §1, §2, §3, §4
A further assay deals with T1, Transglutaminase 2 (Cavia cutleri, UniProt P08587).
T1 construct: purchased Sigma-Aldrich T5398
T1 sequence (P08587 1-690): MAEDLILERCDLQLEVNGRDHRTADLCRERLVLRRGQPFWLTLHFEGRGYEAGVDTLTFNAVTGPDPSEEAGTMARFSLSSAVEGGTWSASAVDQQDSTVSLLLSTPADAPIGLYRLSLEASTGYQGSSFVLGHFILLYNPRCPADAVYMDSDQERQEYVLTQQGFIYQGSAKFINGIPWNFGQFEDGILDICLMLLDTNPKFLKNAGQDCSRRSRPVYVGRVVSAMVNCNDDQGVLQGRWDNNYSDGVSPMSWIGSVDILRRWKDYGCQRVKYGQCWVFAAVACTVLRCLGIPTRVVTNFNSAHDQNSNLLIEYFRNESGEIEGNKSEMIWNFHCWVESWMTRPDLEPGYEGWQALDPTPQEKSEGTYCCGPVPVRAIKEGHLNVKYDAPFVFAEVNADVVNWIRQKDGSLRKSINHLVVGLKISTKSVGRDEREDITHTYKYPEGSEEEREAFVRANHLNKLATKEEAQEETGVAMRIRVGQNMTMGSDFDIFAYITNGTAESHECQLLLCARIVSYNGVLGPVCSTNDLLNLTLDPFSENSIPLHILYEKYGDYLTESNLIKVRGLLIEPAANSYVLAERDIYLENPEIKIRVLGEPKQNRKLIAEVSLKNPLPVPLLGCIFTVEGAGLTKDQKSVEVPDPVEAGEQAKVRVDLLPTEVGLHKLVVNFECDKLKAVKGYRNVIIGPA
In words: In vitro assay for inhibitory effect on TGase 2 ([1,4-14C] putrescine incorporation into succinylated casein). The class given is biochemical. On the procedure:
In vitro Assay for Inhibitory effect of 2-alkyloxy-3-phenylethynyl-4a,5-dihydropyrido[2,3-b]pyrazine derivative on TGase 2.
Method. […] Succinylated casein was purchased from Calbiochem (Cat. No. 573464), and 1 g of the powder was dissolved in 50 ml of a reaction buffer solution containing 5 mM DTT (0.1 M Tris-acetate (pH 8.0), 10 mM CaCl2, 0.15 M NaCl, 1.0 mM EDTA). This solution was stored in a deep freezer for further use. [1,4-14C] Putrescine dihydrochloride was purchased from GE Healthcare (Cat. No. CFA301), and the stock solution was diluted with distilled water to yield a radiological dose of 5 μCi/ml. Transglutaminase 2 was purchased from Sigma-Aldrich (Cat. No. T5398), and diluted with distilled water to yield a final concentration of 1 unit/ml. 2-Alkyloxy-3-phenylethynyl-4a,5-dihydropyrido[2,3-b]pyrazine derivative was dissolved at a concentration of 1 mM to prepare its stock solution, and the stock solution was diluted with DMSO to prepare solutions having various concentrations.
450 μl of succinylated casein solution and 50 μl of [1,4-14C] putrescine dihydrochloride solution were mixed together to prepare a substrate solution. 96 μl of the reaction buffer, 3 μl of the stock solution of the compounds of the present invention, and 1 μl of the stock solution of transglutaminase were mixed together to prepare each sample, followed by incubation at 37° C. for 10 min. 500 μl of the substrate solution and 100 μl of sample solution were mixed well, and the mixture was incubated at 37° C. for 2 hrs and then the reaction terminated by adding 4.5 ml of cold (4° C.) 7.5% TCA. The final solution was stored at 4° C. for 1 hr. The TCA-protein precipitates were filtered through a GF/glass fiber filter, washed with 25 ml of cold 5% TCA, and dried. Radioactivity of cross-linked protein was measured using a β-counter (Beckman Coulter), and compensated by the activity of DMSO-control group as a standard. The activity of transglutaminase was represented by the measured values.

In the next assay the test system is US31. Kind of assay: SRB test, renal cancer cell line US31. The conditions noted are these: 48 h, read-out: IG50 (×E−7). Type of assay: cell-based. On the procedure:
as §1, §2, §3, §4

The next assay has as its system SN12C. Kind of assay: SRB test, renal cancer cell line SN12C. The class given is cell-based. The following applies: Homo sapiens, 48 hours, read-out: IG50 (×E−7). The method, then:
as §1, §2, §3, §4

Method for MDA-MB-231 cells: Evaluation of Anti-cancer efficacy of TGase 2 inhibitor on MDA231 breast cancer cell line by animal study.
MDA-MB-231 cells were cultured in a DMEM medium containing 10% FBS.
8×10^6 of MDA-MB-231 cells were subcutaneously injected into 7-week-old female Balb/c-nude mice. Four TGase inhibitors and doxorubicin were co-administered, and the effects were examined Group 1: saline. […] Group 3: 2-alkyloxy-3-phenylethynyl-4a,5-dihydropyrido[2,3-b]pyrazine derivative (4 mg/kg).
The prepared cancer cell, MDA-MB231/luciferase (8×10^6 cells/head) was subcutaneously injected into animals 7 days after their arrival. When a volume of the injected cancer cells reached 100 mm3, drug treatment was started.
After injection of MDA-MB-231, when a volume of the injected tumor reached 100 mm3, drug treatment was performed. After 3-4 weeks, the mice were sacrificed.
After the tumor volume reached 100 mm3, the size was measured three times per week during the drug treatment period. The tumor volume was calculated as ‘long axis×long axis×short axis/2’.

For the compound `C(#Cc1nc2ncccc2nc1OCCN1CCCC1)c1ccccc1` [Example 1, 3-phenylethynyl-2-(2-(pyrrolidin-1-yl)ethoxy)pyrido[2,3-b]pyrazine], the GI50 (in general, the concentration giving 50% growth inhibition) with renal cancer cell lines (eight renal cancer cell lines, SRB, read-out: Average GI50 over all cell lines) was found to be 0.43 µM. The “anti-cancer efficacy compared with SUTENT” value with renal cancer cell lines (renal cancer cell line, SRB growth rate, FIG. 2) is reported as “better than that of SUTENT®”. The IC50 was found to be 5.61 µM in the assay with A498; 0.137 µM in the assay on ACHN; 0.071 µM with CAKI-I; 0.179 µM with RXF393; 0.225 µM in the assay on 786-O; 0.529 µM in the assay with TK10. The IC50 turned out to be 0.0338 µM against Transglutaminase 2 (FIG. 1), 5.49 µM in the assay on US31 and 0.186 µM in the assay with SN12C. Also, the “reduction in the tumor size” value with MDA-MB-231 cells is listed as “the best effect of a reduction in the tumor size”. In addition, at 10 µM the inhibition against Transglutaminase 2 was 91%.
As to `C(#Cc1nc2ncccc2nc1OCCN1CCCCC1)c1ccccc1` [Example 2, 3-phenylethynyl-2-(2-(piperidin-1-yl)ethoxy)pyrido[2,3-b]pyrazine], the inhibition (in general, the percentage by which the read-out fell short of the control) at 10 µM against Transglutaminase 2 stood at 83%.
The same measure, in the same setting: as for `C(#Cc1nc2ncccc2nc1OCCN1CCOCC1)c1ccccc1` [Example 3, 4-(2-(3-(phenylethynyl)pyrido[3,2-b]pyrazin-2-yloxy)ethyl)morpholine], the figure is 47%; as for `C(#Cc1nc2ncccc2nc1OCCCN1CCCC1)c1ccccc1` [Example 4, 3-(phenylethynyl)-2-(3-(pyrrolidin-1-yl)propoxy)pyrido[3,2-b]pyrazine], 59%.
In the case of `C(#Cc1nc2ncccc2nc1OCCCN1CCCCC1)c1ccccc1` [Example 5, 3-(phenylethynyl)-2-(3-(piperidin-1-yl)propoxy)pyrido[3,2-b]pyrazine], at 10 µM the inhibition against Transglutaminase 2 was 54%.
Still for that read-out and setting: in the case of `C(#Cc1nc2ncccc2nc1OCCCN1CCOCC1)c1ccccc1` [Example 6, 4-(3-(3-(phenylethynyl)pyrido[3,2-b]pyrazin-2-yloxy)propyl)morpholine] it was 32%; in that of `O=C1CCCN1CCCOc1nc2cccnc2nc1C#Cc1ccccc1` [Example 7, 1-(3-(3-(phenylethynyl)pyrido[3,2-b]pyrazin-2-yloxy)propyl)pyrrolidin-2-one], 43%.
The same measure, in the same setting: in the case of `CN(C)c1ccc(C#Cc2nc3ncccc3nc2OCCN2CCCC2)cc1` [Example 8, N,N-dimethyl-4-((2-(2-(pyrrolidin-1-yl)ethoxy)pyrido[3,2-b]pyrazin-3-yl)ethynyl)benzenamine] it was 68%; in that of `CN(C)c1ccc(C#Cc2nc3ncccc3nc2OCCN2CCCCC2)cc1` [Example 9, N,N-dimethyl-4-((2-(2-(piperidin-1-yl)ethoxy)pyrido[3,2-b]pyrazin-3-yl)ethynyl)benzenamine], 57%.
On the same count and under the same terms, as for `COc1ccc(C#Cc2nc3ncccc3nc2OCCN2CCCC2)cc1` [Example 14, 3-(4-methoxyphenylethynyl)-2-(2-pyrrolidin-1-ylethoxy)pyrido[3,2-b]pyrazine], the figure is 64%; as for `COc1ccc(C#Cc2nc3ncccc3nc2OCCN2CCCCC2)cc1` [Example 15, 3-(4-methoxyphenylethynyl)-2-(2-piperidin-1-ylethoxy)pyrido[3,2-b]pyrazine], 51%; as for `Cc1ccc(C#Cc2nc3ncccc3nc2OCCN2CCCC2)cc1` [Example 21, 2-(2-(pyrrolidin-1-yl)ethoxy)-3-(p-tolylethynyl)pyrido[3,2-b]pyrazine], 52%.
For `CN(C)c1ccccc1C#Cc1nc2ncccc2nc1OCCN1CCCC1` [Example 42, N,N-dimethyl-2-((2-(2-(pyrrolidin-1-yl)ethoxy)pyrido[3,2-b]pyrazin-3-yl)ethynyl)benzenamine], on Transglutaminase 2, testing at 10 µM gave an inhibition of 63%.
Same read-out and setting: in the case of `CN(C)c1ccccc1C#Cc1nc2ncccc2nc1OCCN1CCCCC1` [Example 43, N,N-dimethyl-2-((2-(2-(piperidin-1-yl)ethoxy)pyrido[3,2-b]pyrazin-3-yl)ethynyl)benzenamine] it was 54%.

(Values after patent publication US20130164813A1, “Method for Inhibiting Transglutaminase 2 Activity Using 2-alkyloxy-3-phenylethynyl-4a,5-dihydropyrido[2,3-b]pyrazine Derivatives” (DONGGUK UNIVERSITY INDUSTRY-ACADEMIC COOPERATION FOUNDATION, priority 2011, published 2013).)
